From ChEMBL document CHEMBL1255174, “Synthesis and biological evaluation of a novel series of bis-salicylaldehydes as mushroom tyrosinase inhibitors” (Bioorg Med Chem Lett, 2010)
pIC50, pKi: −log10 of the molar value.

These compounds were tested against T1, Tyrosinase (Agaricus bisporus, UniProt O42713) (assay: Inhibition of mushroom tyrosinase by Lineweaver-Burke double reciprocal plot analysis).
T1 sequence (O42713 whole entry): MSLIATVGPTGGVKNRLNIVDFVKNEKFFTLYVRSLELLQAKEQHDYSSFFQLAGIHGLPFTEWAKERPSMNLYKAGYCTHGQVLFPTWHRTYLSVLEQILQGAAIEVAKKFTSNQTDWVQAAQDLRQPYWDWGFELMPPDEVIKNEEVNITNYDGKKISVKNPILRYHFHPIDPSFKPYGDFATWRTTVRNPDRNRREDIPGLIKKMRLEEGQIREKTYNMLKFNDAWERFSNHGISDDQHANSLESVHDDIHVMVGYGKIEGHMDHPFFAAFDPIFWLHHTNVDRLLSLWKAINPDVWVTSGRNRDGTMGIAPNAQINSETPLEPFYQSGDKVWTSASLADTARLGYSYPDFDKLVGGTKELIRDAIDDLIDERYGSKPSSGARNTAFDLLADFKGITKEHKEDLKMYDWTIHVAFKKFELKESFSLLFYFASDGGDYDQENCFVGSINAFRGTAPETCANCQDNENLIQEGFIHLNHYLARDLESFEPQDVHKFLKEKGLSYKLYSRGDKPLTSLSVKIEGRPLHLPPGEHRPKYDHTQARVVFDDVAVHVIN

Row | pKi | SMILES
1 | 4.32 | O=Cc1cc(Cc2ccc(O)c(C=O)c2)ccc1O

The compounds below were run against T1, Tyrosinase.
Description: Inhibition of mushroom tyrosinase after 10 mins by L-DOPA oxidation assay

Row | pIC50 | SMILES
2 | 3.93 | COc1cc(O)c(C=O)cc1Cc1cc(C=O)c(O)cc1OC
3 | 4.12 | O=Cc1cc(Cc2cc(C=O)c(O)cc2O)c(O)cc1O

Second part, the compound before the results:

Row | SMILES | pIC50
4 | O=Cc1cc(Cc2ccc(O)c(C=O)c2)ccc1O | 4.13
5 | COc1cc(Cc2cc(C=O)c(O)c(OC)c2)cc(C=O)c1O | 3.16
6 | O=Cc1cc(Cc2cc(O)c(O)c(C=O)c2)cc(O)c1O | 3.28
